Assay results taken from ChEMBL document CHEMBL3507680, “University of Dundee, Gates Library screen for HepG2 cell viability”.

Test: Human HepG2 cell viability assay in 384 well format
Type: toxicity, cell-based
Parameters: dose 125 nL, time 70.5 hour; cytotoxicity at 70.5 h: concentration not given beside the values
Conditions: HepG2 cells, read-out: Inhibition
With `Cc1ncsc1C(=O)NCCNc1ncccc1C#N` the cytotoxicity at 70.5 h was -8.88%.
Molecule `CCc1nc(C)c(C(=O)NCCNc2ncccc2C#N)s1` has a cytotoxicity at 70.5 h of 19.3%.
For `Cn1ncc2c1CCCC2NCc1cccc(OC2CCCC2)c1` (configuration not stated), the cytotoxicity at 70.5 h was -5.51%.
`CC(C)Oc1ncccc1CNC(=O)c1cc(C2CC2)on1` showed a cytotoxicity at 70.5 h of 16%.
Work on `COc1ccnc(N2CCN(C(=O)c3ccc(Cl)o3)CC2)n1` yielded a cytotoxicity at 70.5 h of -4.43%.
`COc1cc(C)nc(N2CCN(C(=O)c3ccoc3C)CC2)n1` showed a cytotoxicity at 70.5 h of -6.48%.
Work on `Cc1ccc2cc(C(=O)N3CCC(Nc4cccnn4)CC3)[nH]c2c1` yielded a cytotoxicity at 70.5 h of 21.4%.
`Cc1ccc(N2CCCC(NCC(=O)NC3CCOCC3)C2)nn1` (configuration not stated) gave a cytotoxicity at 70.5 h of -3.6%.
In the case of `CCNC(c1ccc(OC)cc1)c1cccnc1` (configuration not stated), the cytotoxicity at 70.5 h was -8.14%.
For `Cc1nn(C)c(Cl)c1C1CCCN1CC(=O)NCc1ccccn1` (configuration not stated), the cytotoxicity at 70.5 h was -7.66%.
In the case of `c1ccc2cc(OCCN3CCOC(Cn4cncn4)C3)ccc2c1` (configuration not stated), the cytotoxicity at 70.5 h was 27.8%.
Molecule `Cc1nc(C(=O)N2CCCC(n3cncn3)C2)cs1` (configuration not stated) has a cytotoxicity at 70.5 h of -3.83%.
For `CC(C)N1CCC(CNCc2c[nH]nc2C(C)(C)C)C1` (configuration not stated), the cytotoxicity at 70.5 h was -0.871%.
Work on `Cc1ccc(N2CCCC(NCc3ccsc3)C2)nn1` (configuration not stated) yielded a cytotoxicity at 70.5 h of -4.89%.
For `O=C(CCOCc1ccccc1)N1CCCC1c1noc(C2CC2)n1` (configuration not stated), the cytotoxicity at 70.5 h was -2.09%.
`Cc1ccc(NC2CCN(C(=O)Cc3cccc(F)c3)CC2)nn1` gave a cytotoxicity at 70.5 h of -4.83%.
`Cc1nc(C)n(CC2CCCN(Cc3nc(C4CC4)no3)C2)n1` (configuration not stated) showed a cytotoxicity at 70.5 h of -1.73%.
For `Cc1nc(C)n(CC2CCCN(c3ncnc4sccc34)C2)n1` (configuration not stated), the cytotoxicity at 70.5 h was 29.9%.
For `COCCc1noc(CN2CCCC(Cn3nc(C)nc3C)C2)n1` (configuration not stated), the cytotoxicity at 70.5 h was 2.6%.
With `O=C(CCc1cscn1)N1CCCC1c1noc(C2CC2)n1` (configuration not stated) the cytotoxicity at 70.5 h was -15.3%.
In the case of `CCn1cnnc1CNC(=O)N(C)Cc1ccc(F)c(F)c1`, the cytotoxicity at 70.5 h was -5.87%.
With `CN(CCCc1ccccc1)Cc1nc2c(cnn2C)c(=O)[nH]1` the cytotoxicity at 70.5 h was -5.07%.
`COCCN(Cc1nc2c(cnn2C)c(=O)[nH]1)Cc1ccco1` showed a cytotoxicity at 70.5 h of -7.8%.
For `CCOc1cccc2c1OCC(C(=O)NS(=O)(=O)Cc1ccccc1)=C2`, the cytotoxicity at 70.5 h was 1.24%.
`COCCOc1ccccc1CNCc1c(C)nn(C)c1N(C)C` gave a cytotoxicity at 70.5 h of -0.188%.
With `CCOC1CCN(C(=O)c2cnn(-c3ccccc3Cl)c2)CC1` the cytotoxicity at 70.5 h was 2.04%.
Work on `O=C(c1cnc(C2CC2)s1)N1CCCC(n2cccn2)C1` (configuration not stated) yielded a cytotoxicity at 70.5 h of -2.13%.
With `c1ccc2sc(N3CCOC(Cn4cccn4)C3)nc2c1` (configuration not stated) the cytotoxicity at 70.5 h was 3.57%.
`Cc1cnn(C2CCCN(C(=O)c3cn4cccnc4n3)C2)c1` (configuration not stated) showed a cytotoxicity at 70.5 h of -3.94%.
`Cc1ccc(NC2CCN(C(=O)Cc3ccc(C#N)cc3)CC2)nn1` showed a cytotoxicity at 70.5 h of -1.55%.
For `CN(c1ccc(F)c(F)c1)S(=O)(=O)c1cc(C(=O)O)cs1`, the cytotoxicity at 70.5 h was -6.55%.
Work on `CN(c1ccc(C(C)(C)C)cc1)S(=O)(=O)c1cc(C(=O)O)cs1` yielded a cytotoxicity at 70.5 h of -10.9%.
In the case of `CCN(CC)Cc1ccc(C(=O)N2CCN(CC(C)O)CC2)cc1` (configuration not stated), the cytotoxicity at 70.5 h was -4.2%.
With `Cc1nccn1CCCC(=O)N1CCC(Nc2cccnn2)CC1` the cytotoxicity at 70.5 h was 5.36%.
Work on `c1ccc2sc(CN3CCOC(Cn4cncn4)C3)nc2c1` (configuration not stated) yielded a cytotoxicity at 70.5 h of -4.62%.
With `Cc1nccn1CC1CCCN1CCCc1nc(-c2cccs2)no1` (configuration not stated) the cytotoxicity at 70.5 h was 9.19%.
In the case of `Cc1ccc(C)c(NC(=O)N(C)Cc2cnn(C)c2)c1`, the cytotoxicity at 70.5 h was -3.32%.
`CN(Cc1nnc2n1CCC2)C(=O)NCCc1ccc2c(c1)OCO2` gave a cytotoxicity at 70.5 h of -11.6%.
`CN(Cc1nnc2n1CCC2)C(=O)Cc1ccc2c(c1)OCCO2` gave a cytotoxicity at 70.5 h of -4.37%.
Molecule `O=C1OCCC1N1CCN(C(=O)Cc2c[nH]c3ccccc23)CC1` (configuration not stated) has a cytotoxicity at 70.5 h of 7.81%.
`CC1CCCCN1CCNC(=O)c1ccn(-c2ccc(F)cc2)n1` (configuration not stated) gave a cytotoxicity at 70.5 h of 35.6%.
With `O=C(CCC1CCCO1)NS(=O)(=O)c1ccc(Cl)cc1` (configuration not stated) the cytotoxicity at 70.5 h was -5.11%.
Work on `CCC(C)NC(=O)NCCCn1nc2ccccn2c1=O` (configuration not stated) yielded a cytotoxicity at 70.5 h of -9.52%.
`O=C(NCCNc1ncccn1)c1ccc(-c2ccco2)[nH]c1=O` showed a cytotoxicity at 70.5 h of -2.56%.
In the case of `Cc1csc(N2CCN(C(=O)Cc3ccsc3)CC2)n1`, the cytotoxicity at 70.5 h was 31.2%.
`Cc1csc(N2CCN(C(=O)CCc3ccccn3)CC2)n1` showed a cytotoxicity at 70.5 h of -2.58%.
`Cc1csc(N2CCN(C(=O)CCc3nccs3)CC2)n1` showed a cytotoxicity at 70.5 h of -2.43%.
